Assay results published in paper PMC5477519, “Leukocyte integrin Mac-1 regulates thrombosis via interaction with platelet GPIbα” (Nature Communications, 2017).

What was measured:
[1] = target: T1, αMI-domain double mutant of integrin Mac-1 (αMβ2, CD11b/CD18) (Homo sapiens, UniProt P11215, R232A/T229A); experiment: SPR (Biacore […], ~[…] RU, steady-state affinity); low-level binding, no consistent interaction at ~[…] RU
T1 construct: gene ITGAM; αMI-domain, human mutant

[2] = target: T2, αMI-domain of integrin Mac-1 (αMβ2, CD11b/CD18) (Homo sapiens, UniProt P11215); experiment: SPR (Biacore […], CM5 chip, steady-state affinity); supported by inhibition of GPIbα binding to αMI-domain (IC50 […])
T2 construct: gene ITGAM; αMI-domain, human WT
T2 sequence (P11215 150-328 limits assumed): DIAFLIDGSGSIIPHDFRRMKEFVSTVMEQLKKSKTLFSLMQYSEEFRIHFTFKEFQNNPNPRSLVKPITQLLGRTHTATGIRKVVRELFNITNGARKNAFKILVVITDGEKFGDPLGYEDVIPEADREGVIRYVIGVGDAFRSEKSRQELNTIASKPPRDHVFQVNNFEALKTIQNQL

T1 sequence (P11215 150-328 T229A/R232A limits assumed): as the sequence (P11215 150-328 limits assumed) above, with T80A, R83A counted along it

## N[C@H]1C(O)O[C@H](CO)[C@@H](O)[C@@H]1O (some centres unmarked) [glucosamine]
[1]
  Kd: ~244 µM
[2]
  Kd: ~100 µM
